The compounds below were run against T1, Ba/F3-Tel-KDR cells (Homo sapiens, UniProt P35968) (assay: Ba/F3-Tel-KDR cell viability inhibition assay (CellTiter-Glo)). Details: 48 hour incubation, read-out: IC50 (the source's name).
T1 construct: fused on or other part: N-terminal oligomerising part of TEL (ETV6) fused to the tyrosine kinase domain of KDR; P41212 (Transcription factor ETV6)
Assay type: cell-based
Text: This assay is a cell-based assay to measure the compound-mediated suppression of Ba/F3 cell proliferation and viability using the Luciferase bioluminescent assay commercially known as CellTiter-Glo™. In this case, a specifically modified cell line, Ba/F3-Tel-KDR is used. These cells are engineered such that intact signaling through the tyrosine kinase domain of KDR is critical for their survival. Inhibition of KDR signaling results in cell death which is quantitated using a cell viability assay. This is a homogeneous bioluminescent assay that yields a rapid, simple and sensitive determination of the number of viable cells in culture by generation of a luminescent signal proportional to the amount of ATP present in cells. KDR inhibitor compound dilutions are incubated with Ba/F3-Tel-KDR cells over a 48 hour period and the resulting cell viability is measured with a suitable luminometer.
This assay is performed in Ba/F3-Tel-KDR cells. Cells are cultured at 37° C. […] Medium is changed the day before the experiment. On Day 1, cells are plated into white solid bottom 384-well plates at 5000 cells/well in 25 μl culture medium. A ten-point dose response curve is prepared as follows: compounds are first serially diluted 3-fold in 100% DMSO, starting from 10 mM. […] 5 μl of diluted compound is added to cell plates with 25 μl culture medium. […] The final concentration of DMSO is 0.1%. Wells without or with cells plus 0.1% DMSO serve as controls. On Day 3, Lyophilized CellTiter-Glo buffer and substrate and the cell plates are first equilibrated to room temperature. Substrate is reconstituted in buffer and 30 μl reconstituted substrate is added to each well. After incubation for 10 minutes at room temperature, plates are read in a luminometer. Compounds are tested in a 10-point dose response and each concentration is run in triplicate on a given plate. Each plate is run in duplicate.

T1 sequence (P35968 whole entry, change not shown, the tested form may be a part): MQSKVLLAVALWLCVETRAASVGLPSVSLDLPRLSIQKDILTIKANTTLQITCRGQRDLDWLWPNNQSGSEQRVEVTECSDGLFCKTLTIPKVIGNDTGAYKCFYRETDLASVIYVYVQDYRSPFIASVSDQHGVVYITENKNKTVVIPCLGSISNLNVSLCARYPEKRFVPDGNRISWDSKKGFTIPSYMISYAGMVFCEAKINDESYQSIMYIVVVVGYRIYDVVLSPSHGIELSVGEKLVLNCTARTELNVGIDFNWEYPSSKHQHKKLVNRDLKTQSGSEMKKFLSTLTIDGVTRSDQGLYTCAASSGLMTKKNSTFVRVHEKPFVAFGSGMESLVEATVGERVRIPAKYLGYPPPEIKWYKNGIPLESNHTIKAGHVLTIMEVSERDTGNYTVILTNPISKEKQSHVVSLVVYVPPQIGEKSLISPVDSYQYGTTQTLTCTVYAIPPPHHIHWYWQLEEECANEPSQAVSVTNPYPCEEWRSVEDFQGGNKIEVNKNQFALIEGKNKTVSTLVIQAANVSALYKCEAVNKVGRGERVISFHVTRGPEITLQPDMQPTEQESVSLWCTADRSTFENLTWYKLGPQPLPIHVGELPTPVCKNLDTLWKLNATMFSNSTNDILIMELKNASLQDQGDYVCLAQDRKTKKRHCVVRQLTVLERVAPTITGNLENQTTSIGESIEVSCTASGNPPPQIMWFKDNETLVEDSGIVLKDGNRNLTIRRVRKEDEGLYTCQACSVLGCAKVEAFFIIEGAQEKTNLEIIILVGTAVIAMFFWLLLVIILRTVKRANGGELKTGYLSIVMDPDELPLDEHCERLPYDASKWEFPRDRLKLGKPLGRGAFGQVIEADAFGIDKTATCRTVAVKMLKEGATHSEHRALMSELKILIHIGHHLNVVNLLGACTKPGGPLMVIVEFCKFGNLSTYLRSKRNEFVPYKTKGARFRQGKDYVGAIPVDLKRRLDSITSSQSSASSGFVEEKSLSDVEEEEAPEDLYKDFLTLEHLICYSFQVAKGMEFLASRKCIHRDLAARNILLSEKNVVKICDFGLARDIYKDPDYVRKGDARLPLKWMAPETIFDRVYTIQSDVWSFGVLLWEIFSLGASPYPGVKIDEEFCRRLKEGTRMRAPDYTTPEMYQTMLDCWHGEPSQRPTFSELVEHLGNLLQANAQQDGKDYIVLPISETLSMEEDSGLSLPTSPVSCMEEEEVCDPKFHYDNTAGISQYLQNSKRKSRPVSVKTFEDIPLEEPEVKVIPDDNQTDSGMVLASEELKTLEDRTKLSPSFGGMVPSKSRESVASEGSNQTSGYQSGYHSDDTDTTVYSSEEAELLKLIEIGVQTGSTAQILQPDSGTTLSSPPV

SMILES | GI50 [nM]
COCc1cc(Oc2ccc3c(ccn3C(=O)Nc3ccc(F)c(C(F)(F)F)c3)c2)ncn1 [Example 20-C] | 6
CCN1Cc2ncnc(Oc3ccc4c(ccn4C(=O)Nc4cc5n(n4)CCC5(C)C)c3)c2C[C@@H]1C [Example 136-I] | 1
CNCc1cc(Oc2ccc3c(ccn3C(=O)Nc3ccc(OC)c(C(F)(F)F)c3)c2)ncn1 [Example 76-E, N-(4-methoxy-3-(trifluoromethyl)phenyl)-5-(6-((methylamino)methyl)pyrimidin-4-yloxy)-1H-indole-1-carboxamide] | < 1
CNCc1cc(Oc2ccc3c(ccn3C(=O)Nc3cc(C4CC4)n(C4CC4)n3)c2)ncn1 [Example 137-AB] | 1
CC(C)c1cc(NC(=O)n2ccc3cc(Oc4cc(CNC5CC5)ncn4)ccc32)n[nH]1 [Example 137-I] | 100
O=C(Nc1cccc(C(F)(F)F)c1)n1ccc2cc(Oc3ccnc(CO)c3)ccc21 [Example 25-D, 5-(2-Hydroxymethyl-pyridin-4-yloxy)-indole-1-carboxylic acid (3-trifluoromethylphenyl)-amide] | 3
Cc1c(Oc2ncnc3c2CNC3)ccc2c1ccn2C(=O)Nc1cc(C2CC2)on1 [Example 134-AC] | 4
CS(=O)(=O)Cc1cc(Oc2ccc3c(ccn3C(=O)Nc3cccc(C(F)(F)F)c3)c2F)ncn1 [Example 87-E, 4-Fluoro-5-(6-methanesulfonylmethyl-pyrimidin-4-yloxy)-indole-1-carboxylic acid (3-trifluoromethyl-phenyl)-amide] | 7
Cc1c(Oc2ncnc3c2C[C@H](C)NC3)ccc2c1ccn2C(=O)Nc1cc(C2CC2)on1 [Example 134-AG] | 95
CC(C)CC(=O)N1Cc2ncnc(Oc3ccc4c(ccn4C(=O)Nc4cc(C5(C(F)(F)F)CC5)on4)c3)c2C[C@@H]1C [Example 135-E] | < 1
O=C(Nc1cccc(C(F)(F)F)c1)n1ccc2c(F)c(Oc3ncnc4c3CCNC4)ccc21 [Example 33-E] | 9
CNCc1cc(Oc2ccc3c(ccn3C(=O)Nc3cc(C4CC4)[nH]n3)c2)ncn1 [Example 137-F] | 19
Cc1cc2cc(Oc3ncnc4c3CCNC4)ccc2n1C(=O)Nc1cccc(C(F)(F)F)c1 [Example 33-L] | 87
CS(=O)(=O)Cc1cc(Oc2ccc3c(ccn3C(=O)Nc3ccc(F)c(C(F)(F)F)c3)c2)ncn1 [Example 86-A, N-(4-fluoro-3-(trifluoromethyl)phenyl)-5-(6-(methylsulfonylmethyl)pyrimidin-4-yloxy)-1H-indole-1-carboxamide] | < 1
C[C@H]1Cc2c(ncnc2Oc2ccc3c(ccn3C(=O)Nc3ccn(C(C)(C)C)n3)c2)CN1 [Example 54-V] | 63
C[C@H]1Cc2c(ncnc2Oc2ccc3c(ccn3C(=O)Nc3cc(C4(C)CC4)n[nH]3)c2F)CN1 [Example 54-H] | 1
O=C(Nc1cc(C2(C(F)(F)F)CC2)on1)n1ccc2cc(Oc3ncnc4c3CCCNC4)ccc21 [Example 134-A] | 3
O=C(Nc1cc(F)cc(C(F)(F)F)c1)n1ccc2cc(Oc3ncnc4c3CCNC4)ccc21 [Example 33-H] | 330
O=C(Nc1ccc(F)c(C(F)(F)F)c1)n1ccc2cc(Oc3ncnc4c3CCNC4)ccc21 [Example 33-D] | 189
C[C@@H]1Cc2c(ncnc2Oc2ccc3c(ccn3C(=O)Nc3cc(C4(C)CC4)n[nH]3)c2F)CN1 [Example 54-I] | < 1
C[C@H]1Cc2c(ncnc2Oc2ccc3c(ccn3C(=O)Nc3cc(C4CC4)on3)c2)CN1C [Example 136-J] | 36
Cc1cc2cc(Oc3ncnc4c3CNC4)ccc2n1C(=O)Nc1cc(C(C)(C)C)on1 [Example 57-C, 5-(6,7-dihydro-5H-pyrrolo[3,4-d]pyrimidin-4-yloxy)-2-methyl-indole-1-carboxylic acid (5-tert-butyl-isoxazol-3-yl)-amide] | < 1
O=C(Nc1cccc(C(F)(F)F)c1)n1ccc2cc(Oc3ccnc(CCN4CCOCC4)n3)ccc21 [Example 73-D, 5-(2-(2-morpholinoethyl)pyrimidin-4-yloxy)-N-(3-(trifluoromethyl)phenyl)-1H-indole-1-carboxamide] | 9
